Measured values taken from the supplement of paper PMC10307832.

How the values were obtained:
Assay in all cases: relative viability (nuclei count vs DMSO), 5 days (fraction); higher = more cells survive
LC-2-ad = tested on: LC-2-ad
Summary of the method: (§1)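 Nuclei were stained with Hoechst during a one-step fixation (final 0.05% Triton X-100, 1% formaldehyde, 1 ug/ml Hoechst) carried out 5 days after dosing, then counted on 4× images. The cells, lung cancer lines in 1536-well plates, had been dosed by pin tool the day after seeding with one drug alone or a fixed anchor-drug dose plus five library-drug doses (not always all listed) in √10 steps. Relative viability is the nuclei count in treated wells divided by that in vehicle wells, and each value is the median of duplicate plates.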

BEN = tested on: BEN
Summary of the method: as §1

H3255 = tested on: H3255
Summary of the method: as §1

A-427 = tested on: A-427
Summary of the method: as §1

NCI-H1650 = tested on: NCI-H1650
Summary of the method: as §1

NCI-H520 = tested on: NCI-H520
Summary of the method: as §1

PC-3 [JPC-3] = tested on: PC-3 [JPC-3]
Summary of the method: as §1

NCI-H441 = tested on: NCI-H441
Summary of the method: as §1

NCI-H650 = tested on: NCI-H650
Summary of the method: as §1

NCI-H460 = tested on: NCI-H460
Summary of the method: as §1

ABC-1 = tested on: ABC-1
Summary of the method: as §1

NCI-H2087 = tested on: NCI-H2087
Summary of the method: as §1

LCLC-97TM1 = tested on: LCLC-97TM1
Summary of the method: as §1

NCI-H2023 = tested on: NCI-H2023
Summary of the method: as §1

NCI-H1944 = tested on: NCI-H1944
Summary of the method: as §1

NCI-H596 = tested on: NCI-H596
Summary of the method: as §1

NCI-H1651 = tested on: NCI-H1651
Summary of the method: as §1

201T = tested on: 201T
Summary of the method: as §1

NCI-H661 = tested on: NCI-H661
Summary of the method: as §1

NCI-H1915 = tested on: NCI-H1915
Summary of the method: as §1

NCI-H727 = tested on: NCI-H727
Summary of the method: as §1

For `COc1cc2nccc(Oc3ccc(NC(=O)Nc4cc(C)on4)c(Cl)c3)c2cc1OC` [Tivozanib] + Nc1ncn([C@H]2C[C@H](O)[C@@H](CO)O2)c(=O)n1 [Decitabine] (partner 2 µM), the relative viability (LC-2-ad; first compound 0.005 µM) was 0.835, the relative viability (LC-2-ad; first compound 0.01581 µM) was 0.681 and the relative viability (LC-2-ad; first compound 0.05 µM) was 0.77. For the same compound, the relative viability (LC-2-ad; first compound 0.1581 µM) was 0.58, the relative viability (LC-2-ad; first compound 0.5 µM) was 0.57 and the relative viability (BEN; first compound 0.005 µM) was 0.725. The relative viability (BEN; first compound 0.01581 µM) was 0.703, the relative viability (BEN; first compound 0.05 µM) was 0.761 and the relative viability (BEN; first compound 0.1581 µM) was 0.471. The relative viability (BEN; first compound 0.5 µM) was 0.563, the relative viability (H3255; first compound 0.005 µM) was 0.541 and the relative viability (H3255; first compound 0.01581 µM) was 0.592. It also gave a relative viability (H3255; first compound 0.05 µM) of 0.591, a relative viability (H3255; first compound 0.1581 µM) of 0.552 and a relative viability (H3255; first compound 0.5 µM) of 0.77. For the same compound, the relative viability (A-427; first compound 0.005 µM) was 0.566, the relative viability (A-427; first compound 0.01581 µM) was 0.551 and the relative viability (A-427; first compound 0.05 µM) was 0.575. It also gave a relative viability (A-427; first compound 0.1581 µM) of 0.566, a relative viability (A-427; first compound 0.5 µM) of 0.543 and a relative viability (NCI-H1650; first compound 0.005 µM) of 0.412. It also gave a relative viability (NCI-H1650; first compound 0.01581 µM) of 0.493, a relative viability (NCI-H1650; first compound 0.05 µM) of 0.507 and a relative viability (NCI-H1650; first compound 0.1581 µM) of 0.508. For the same compound, the relative viability (NCI-H1650; first compound 0.5 µM) was 0.411, the relative viability (NCI-H520; first compound 0.005 µM) was 0.442 and the relative viability (NCI-H520; first compound 0.01581 µM) was 0.448. For the same compound, the relative viability (NCI-H520; first compound 0.05 µM) was 0.444, the relative viability (NCI-H520; first compound 0.1581 µM) was 0.56 and the relative viability (NCI-H520; first compound 0.5 µM) was 0.351. The relative viability (PC-3 [JPC-3]; first compound 0.01581 µM) was 0.843, the relative viability (PC-3 [JPC-3]; first compound 0.05 µM) was 0.805 and the relative viability (PC-3 [JPC-3]; first compound 0.1581 µM) was 0.815. It also gave a relative viability (PC-3 [JPC-3]; first compound 0.5 µM) of 0.831, a relative viability (NCI-H441; first compound 0.005 µM) of 0.262 and a relative viability (NCI-H441; first compound 0.01581 µM) of 0.25. The relative viability (NCI-H441; first compound 0.05 µM) was 0.218, the relative viability (NCI-H441; first compound 0.1581 µM) was 0.281 and the relative viability (NCI-H441; first compound 0.5 µM) was 0.224. The relative viability (NCI-H650; first compound 0.005 µM) was 0.296, the relative viability (NCI-H650; first compound 0.01581 µM) was 0.299 and the relative viability (NCI-H650; first compound 0.05 µM) was 0.35. It also gave a relative viability (NCI-H650; first compound 0.1581 µM) of 0.312, a relative viability (NCI-H650; first compound 0.5 µM) of 0.294 and a relative viability (NCI-H460; first compound 0.005 µM) of 0.449. For the same compound, the relative viability (NCI-H460; first compound 0.01581 µM) was 0.468, the relative viability (NCI-H460; first compound 0.05 µM) was 0.48 and the relative viability (NCI-H460; first compound 0.1581 µM) was 0.62. The relative viability (NCI-H460; first compound 0.5 µM) was 0.482, the relative viability (ABC-1; first compound 0.005 µM) was 0.986 and the relative viability (ABC-1; first compound 0.01581 µM) was 1.01. The relative viability (ABC-1; first compound 0.05 µM) was 1.15, the relative viability (ABC-1; first compound 0.1581 µM) was 0.868 and the relative viability (ABC-1; first compound 0.5 µM) was 0.694. The relative viability (NCI-H2087; first compound 0.005 µM) was 0.275, the relative viability (NCI-H2087; first compound 0.01581 µM) was 0.249 and the relative viability (NCI-H2087; first compound 0.05 µM) was 0.352. The relative viability (NCI-H2087; first compound 0.1581 µM) was 0.254, the relative viability (NCI-H2087; first compound 0.5 µM) was 0.348 and the relative viability (LCLC-97TM1; first compound 0.005 µM) was 0.215. The relative viability (LCLC-97TM1; first compound 0.01581 µM) was 0.22, the relative viability (LCLC-97TM1; first compound 0.05 µM) was 0.297 and the relative viability (LCLC-97TM1; first compound 0.1581 µM) was 0.221. The relative viability (LCLC-97TM1; first compound 0.5 µM) was 0.19, the relative viability (NCI-H2023; first compound 0.005 µM) was 0.223 and the relative viability (NCI-H2023; first compound 0.01581 µM) was 0.219. The relative viability (NCI-H2023; first compound 0.05 µM) was 0.24, the relative viability (NCI-H2023; first compound 0.1581 µM) was 0.242 and the relative viability (NCI-H2023; first compound 0.5 µM) was 0.213. It also gave a relative viability (NCI-H1944; first compound 0.005 µM) of 0.402, a relative viability (NCI-H1944; first compound 0.01581 µM) of 0.473 and a relative viability (NCI-H1944; first compound 0.05 µM) of 0.447. For the same compound, the relative viability (NCI-H1944; first compound 0.1581 µM) was 0.459, the relative viability (NCI-H1944; first compound 0.5 µM) was 0.416 and the relative viability (NCI-H596; first compound 0.005 µM) was 0.975. For the same compound, the relative viability (NCI-H596; first compound 0.01581 µM) was 0.994, the relative viability (NCI-H596; first compound 0.05 µM) was 1.15 and the relative viability (NCI-H596; first compound 0.5 µM) was 1.03. It also gave a relative viability (NCI-H1651; first compound 0.005 µM) of 0.572, a relative viability (NCI-H1651; first compound 0.01581 µM) of 0.551 and a relative viability (NCI-H1651; first compound 0.05 µM) of 0.675. It also gave a relative viability (NCI-H1651; first compound 0.1581 µM) of 0.438, a relative viability (NCI-H1651; first compound 0.5 µM) of 0.524 and a relative viability (201T; first compound 0.005 µM) of 0.85. It also gave a relative viability (201T; first compound 0.01581 µM) of 0.855, a relative viability (201T; first compound 0.05 µM) of 0.87 and a relative viability (201T; first compound 0.1581 µM) of 0.854. For the same compound, the relative viability (201T; first compound 0.5 µM) was 0.896, the relative viability (NCI-H661; first compound 0.005 µM) was 0.527 and the relative viability (NCI-H661; first compound 0.01581 µM) was 0.557. The relative viability (NCI-H661; first compound 0.05 µM) was 0.592, the relative viability (NCI-H661; first compound 0.1581 µM) was 0.514 and the relative viability (NCI-H661; first compound 0.5 µM) was 0.552. The relative viability (NCI-H1915; first compound 0.005 µM) was 0.281, the relative viability (NCI-H1915; first compound 0.01581 µM) was 0.281 and the relative viability (NCI-H1915; first compound 0.05 µM) was 0.253. It also gave a relative viability (NCI-H1915; first compound 0.1581 µM) of 0.293, a relative viability (NCI-H1915; first compound 0.5 µM) of 0.268 and a relative viability (NCI-H727; first compound 0.005 µM) of 0.836. The relative viability (NCI-H727; first compound 0.01581 µM) was 0.929, the relative viability (NCI-H727; first compound 0.05 µM) was 0.85 and the relative viability (NCI-H727; first compound 0.1581 µM) was 0.59. It also gave a relative viability (NCI-H727; first compound 0.5 µM) of 0.905.
